Results reported in patent US20240391964A1, “COMPOSITIONS AND METHODS FOR THE TREATMENT OF CANCER” (The University of Western Australia, priority 2020, published 2024).

Columns and labels:
T11 tumours = assay: T11 allograft in BALB/c mice, intratumoral treatment; assay type: in vivo; details: day 14 post-inoculation, mean±SEM
Procedure: To investigate the efficacy of the combination of melittin and docetaxel in reducing TNBC growth in vivo, T11 cells were transplanted in BALB/c mice. This allograft model recapitulates highly aggressive, TNBC claudin-low disease in mice with an intact immune system. Three days after the generation of T11 tumours (˜50 mm^3), mice were randomized into four groups (n=12 mice/group) and treated intratumorally with either vehicle, melittin (5 mg/Kg), docetaxel (7 mg/Kg), or a combination of melittin (5 mg/Kg) and docetaxel (7 mg/Kg). Mice were treated every two days from day three, with a total of seven treatments.
The therapeutic effects of melittin and docetaxel were validated in tumour tissues at day 14 post-inoculation of T11 cells by immunohistochemistry and immunofluorescence (FIG. 14A).

T11 cells [1] = assay: Cell viability, combination with docetaxel; assay type: cell-based, murine; details: T11, 48 hours
Procedure: FIG. 15 presents the results of cell viability assays of T11 breast cancer cells treated with melittin or RGD1-melittin alone and in combination with docetaxel for 48 hours. Representative plots of the combination treatments are presented as mean±SEM.
The murine p53 TNBC cell line T11 was treated with docetaxel in combination with either melittin or RGD1-melittin, and cell viability assays were conducted to determine the combination effect between the treatments (FIG. 15).

[2] = test system: human TNBC and HER2-enriched breast cancer cells; assay: Cell viability dose-response assay, TNBC and HER2-enriched panel; assay type: cell-based; details: range over human TNBC and HER2-enriched breast cancer cells
Procedure: (§2) To assess anticancer efficacy and selectivity, both venom from European honeybees collected in Perth, Australia and melittin peptide were evaluated in dose-response assays in a panel of cell lines representative of the intrinsic breast cancer subtypes and in non-transformed cells.
Data are presented as mean±SEM in ng/μL or μM (to two decimal places). Experiments were performed in biological triplicate.

COV362 cells = assay type: cell-based; details: COV362, 24 h
Procedure: (§1) The OVCAR3 and COV362 ovarian cancer cell lines were treated with active RGD1-melittin and mutant RGD1-melittin (DEDE-RGD1-melittin). The COV362 cells were cultured in DMEM low glucose medium supplemented with 10% FBS. The OVCAR3 cells were grown in RPMI medium supplemented with 20% FBS. Cells were seeded overnight at a density of 5000 cells/p96-well plate and treated with active RGD1-melittin and mutant RGD1-melittin (RGD1-DEDE melittin), for 24 h at concentrations up to 20 µM. After treatments, cell viability was assessed using the CellTiter-Glo® assay according to the manufacturer's protocol (Promega; NSW, Australia). Luminescence signals were measured using the EnVision Multilabel Plate Reader (PerkinsElmer Inc.; Waltham, MA, USA). IC50s were calculated and transformed 95% confidence intervals provided by GraphPad Prism 6 software analysis (GraphPad Software Inc., San Diego, CA, USA).

OVCAR3 cells = assay type: cell-based; details: OVCAR3, 24 h
Procedure: as §1

[3] = test system: p-EGFR, p-Akt, p-p44/42 MAPK in SUM159 cells; assay: Immunoblotting of RTK signalling, SUM159; assay type: cell-based, human
[4] = test system: p-HER2, p-EGFR, p-p44/42 MAPK, p-Akt in SKBR3 cells; assay: Immunoblotting of RTK signalling, SKBR3; assay type: cell-based, human; details: SKBR3, EGF exposed, IC50, from 5 minutes onwards
T11 cells [5] = assay: Cell viability, combination with omomyc; assay type: cell-based, murine; details: T11, 24 hours
Procedure: FIG. 16 presents the results of cell viability assays of T11 breast cancer cells treated with melittin or RGD1-melittin alone and in combination with omomyc for 24 hours. Representative plots of the combination treatments are presented as mean±SEM.
The murine p53 TNBC cell line T11 was treated with omomyc in combination with either melittin or RGD1-melittin, and cell viability assays were conducted to determine the combination effect between the treatments (FIG. 16).

[6] = test system: HDFa, SKBR3 and SUM159 cells; assay: Cell viability kinetics over one hour; assay type: cell-based, human; details: IC50 concentrations
[7] = test system: EGFR and MAPK phosphorylation in MDA-MB-231 cells; assay: Immunoblotting of RTK signalling, MDA-MB-231; assay type: cell-based, human; details: MDA-MB-231, EGF treatment
Procedure: To characterize the effects on signaling pathways in another TNBC model, immunoblotting was conducted on MDA-MB-231 cells, in which EGF treatment phosphorylated EGFR and induced EGFR expression (FIG. 8C). […] Other growth factor receptors such as VEGFR1 may mediate the activation of these pathways.

SUM159 cells [8] = assay: Annexin V flow cytometry; assay type: cell-based, human; details: IC50 concentration, 60 minutes, mean±SEM
Procedure: To quantify the apoptotic, necrotic or dead cell populations after treatment, flow cytometry for the detection of Annexin V (an early marker of apoptosis) was performed.

SUM159 cells [9] = test system: SUM159 cells
Procedure: FIG. 5C presents cell viability assays of human dermal fibroblasts (HDFa) and SUM159 treated with melittin (top) and RGD1-melittin (bottom) for 24 hours.
as §2

SUM159 cells [10] = assay: Cleaved caspase-3 immunoblot; assay type: cell-based, human
[11] = test system: JAK/STAT pathway in SUM159 cells; assay: Western blot of JAK/STAT pathway; assay type: cell-based, human; details: 60-minute treatment

## CC(=O)O[C@@]12CO[C@@H]1C[C@H](O)[C@@]1(C)C(=O)[C@H](O)C3=C(C)[C@@H](OC(=O)[C@H](O)[C@@H](NC(=O)OC(C)(C)C)c4ccccc4)C[C@@](O)([C@@H](OC(=O)c4ccccc4)[C@H]21)C3(C)C [docetaxel]
T11 tumours
  PD-L1 expression in tumours: 84.3±0.6%
  tumour cell proliferation (Ki-67 expression): 21.0±1.3%

## CC[C@H](C)[C@H](NC(=O)CN)C(=O)NCC(=O)N[C@@H](C)C(=O)N[C@H](C(=O)N[C@@H](CC(C)C)C(=O)N[C@@H](CCCCN)C(=O)N[C@H](C(=O)N[C@@H](CC(C)C)C(=O)N[C@H](C(=O)N[C@H](C(=O)NCC(=O)N[C@@H](CC(C)C)C(=O)N1CCC[C@H]1C(=O)N[C@@H](C)C(=O)N[C@@H](CC(C)C)C(=O)N[C@H](C(=O)N[C@@H](CO)C(=O)N[C@@H](Cc1c[nH]c2ccccc12)C(=O)N[C@H](C(=O)N[C@@H](CCCCN)C(=O)N[C@@H](CCCNC(=N)N)C(=O)N[C@@H](CCCCN)C(=O)N[C@@H](CCCNC(=N)N)C(=O)N[C@@H](CCC(N)=O)C(=O)N[C@@H](CCC(N)=O)C(N)=O)[C@@H](C)CC)[C@@H](C)CC)[C@@H](C)O)[C@@H](C)O)C(C)C)C(C)C [melittin]
T11 tumours
  PD-L1 expression in tumours: 52.9±2.4%
  tumour cell proliferation (Ki-67 expression): 31.7±1.3%
T11 cells [1]
  combination effect with docetaxel on cell viability: beneficial effect when combined with docetaxel
[2]
  IC50: 0.94 to 1.49 µM
COV362 cells
  IC50: 7.81 µM
OVCAR3 cells
  IC50: 18.2 µM
[3]; SUM159, 10-20 minutes
  p-EGFR (Tyr1068): strongly down-regulated
  p-p44/42 MAPK (Thr202/Tyr204): upregulated
[3]; SUM159, melittin all time points, venom 10-20 minutes
  p-Akt (Ser473 and Thr308): suppressed
[4]
  p-HER2 (Tyr1248), p-EGFR (Tyr1068), p-p44/42 MAPK (Thr202/Tyr204), p-Akt (Ser473 and Thr308): strongly downregulated
T11 cells [5]
  combination effect with omomyc on cell viability: beneficial effect when combined with omomyc
[6]
  cell viability over up to one hour: significantly reduced the viability of both breast cancer cell lines compared to the normal cells from 10 minutes onwards
[7]
  phosphorylation of EGFR and MAPK: reduced the phosphorylation of EGFR and MAPK
SUM159 cells [8]
  late apoptotic/necrotic cells: 23.6±5.7%
SUM159 cells [9]; 24 hours, mean±SEM
  ratio of the IC50s of HDFa/SUM159: 1.76±0.04
SUM159 cells [9]; TNBC SUM159
  half-maximal inhibitory concentration (IC50): 4.24 µg/mL
SUM159 cells [10]; 24 hours
  induction of apoptosis (cleaved caspase-3): confirmed the anticancer activity
SUM159 cells [10]; IC50 concentration, 18 and 24 hours
  induction of cleaved caspase-3 (apoptosis): higher level of apoptosis than honeybee venom
[11]
  effects on JAK/STAT pathway inhibitors: No modulatory effects
